# In PMC8745299, “Generation of Lasso Peptide-Based ClpP Binders” (International Journal of Molecular Sciences, 2021):
# “And” between values parts separate entries of the source, which are not always exact repeats. Equal values may be shown once. Read-outs that look alike come from different tables or passages of the source. Bridge positions count the residues as written; N and C are the ends. Peptide text beside a SMILES is read from it.
# T1: SaClpP (Staphylococcus aureus, UniProt Q2G036)
# T1 sequence (Q2G036 1-195): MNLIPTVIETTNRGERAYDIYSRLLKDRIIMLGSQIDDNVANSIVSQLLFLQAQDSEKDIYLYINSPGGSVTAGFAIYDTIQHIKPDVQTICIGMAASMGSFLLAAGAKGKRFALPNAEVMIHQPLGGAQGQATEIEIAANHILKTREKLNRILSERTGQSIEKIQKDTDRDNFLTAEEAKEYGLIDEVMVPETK
# T2: S. aureus ClpP (Staphylococcus aureus), Q2G036
# T2 chain: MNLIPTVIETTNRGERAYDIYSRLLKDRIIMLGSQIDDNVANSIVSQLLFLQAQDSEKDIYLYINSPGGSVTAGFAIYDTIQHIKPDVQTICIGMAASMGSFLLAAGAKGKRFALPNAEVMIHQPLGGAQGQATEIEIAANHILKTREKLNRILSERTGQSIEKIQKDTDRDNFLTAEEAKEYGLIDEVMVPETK
# How the values were obtained:
# [1] = target: B. subtilis ClpP (Bacillus subtilis) (UniProt P80244); test: SEC; BsClpP purified under specific buffer conditions that favor tetradecamer assembly; tetradecameric fraction collected from a gel filtration column (buffers in ref. 43)
# BsClpP (monomer) = target: T3, BsClpP (monomer) (Bacillus subtilis, UniProt P80244); test: Peptidase activity of BsClpP, predominantly monomeric preparation; format: biochemical, B. subtilis
# T3 construct: His-tag (C); made in house; host or cells: E. coli BL21 (DE3)
# T3 sequence (P80244 whole entry): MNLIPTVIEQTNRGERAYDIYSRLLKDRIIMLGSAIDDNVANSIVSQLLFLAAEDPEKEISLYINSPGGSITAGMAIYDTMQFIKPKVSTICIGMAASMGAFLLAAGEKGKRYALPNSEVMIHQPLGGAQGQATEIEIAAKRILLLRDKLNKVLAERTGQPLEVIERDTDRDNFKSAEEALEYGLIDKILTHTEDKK
# Experimental: (§1) Peptide degradation assays were performed in black flat-bottom 96-well plates with a total reaction volume of 100 μL and reaction temperatures of 32 °C and 37 °C for SaClpP and BsClpP, respectively. Stock solutions of ADEP2 and MccJ25 WT or variants were dissolved in DMSO and pre-diluted to 100× of the final concentration. Accordingly, 1 μL of the respective stock solution was placed at the bottom of the wells. […] 50 μL of a 2× enzyme solution (final assay concentration: 1 μM) in activity buffer was added to the plate and incubated for 15 min at 32 °C and 37 °C for SaClpP and BsClpP activity assays, respectively. The enzyme reaction was started by addition of 49 μL of a solution of the fluorogenic model peptide substrate Suc-Leu-Tyr-AMC in activity buffer at a final concentration of 200 μM. For SaClpP assays, the activity buffer was comprised of 100 mM NaCl and 100 mM HEPES at pH 7. […] The fluorescence read-out was measured using a Tecan (Crailsheim, Germany) M200Pro plate reader (excitation/emission: 380/460 nm) every 30–60 s for 1 h. Enzyme velocity was determined by linear regression of the initial segment of the fluorescence-time plot in GraphPad Prism 5 (GraphPad Software, San Diego, CA, USA). […]
# BsClpP tetradecamer = target: T4, BsClpP tetradecamer (Bacillus subtilis, UniProt P80244); test: Peptidase activity of pre-purified tetradecameric BsClpP; format: biochemical, B. subtilis; details: read-out: EC50, BsClpP14 peptidase activity
# T4 construct: His-tag (C); made in house; host or cells: E. coli BL21 (DE3)
# T4 sequence (P80244 whole entry): as above
# Experimental: as §1
# BsClpP = target: T5, BsClpP (Bacillus subtilis, UniProt P80244); test: BsClpP peptidase activity, preparation not specified; format: biochemical, B. subtilis
# T5 construct: His-tag (C); made in house; host or cells: E. coli BL21 (DE3)
# T5 sequence (P80244 whole entry): as above
# Experimental: (§2) Peptide degradation assays were performed in black flat-bottom 96-well plates with a total reaction volume of 100 μL and reaction temperatures of 32 °C and 37 °C for SaClpP and BsClpP, respectively. Stock solutions of ADEP2 and MccJ25 WT or variants were dissolved in DMSO and pre-diluted to 100× of the final concentration. Accordingly, 1 μL of the respective stock solution was placed at the bottom of the wells. […] 50 μL of a 2× enzyme solution (final assay concentration: 1 μM) in activity buffer was added to the plate and incubated for 15 min at 32 °C and 37 °C for SaClpP and BsClpP activity assays, respectively. The enzyme reaction was started by addition of 49 μL of a solution of the fluorogenic model peptide substrate Suc-Leu-Tyr-AMC in activity buffer at a final concentration of 200 μM. For SaClpP assays, the activity buffer was comprised of 100 mM NaCl and 100 mM HEPES at pH 7. BsClpP activity buffer (50 mM Tris-HCl, 25 mM MgCl2, 200 mM KCl, 2 mM DTT, pH 8) was used in BsClpP assays as well as in SaClpP experiments, where the buffer composition was supposed to lead to oligomeric breakdown of the SaClpP tetradecamer to allow testing the activity retaining effect of ClpP agonists. The fluorescence read-out was measured using a Tecan (Crailsheim, Germany) M200Pro plate reader (excitation/emission: 380/460 nm) every 30–60 s for 1 h. Enzyme velocity was determined by linear regression of the initial segment of the fluorescence-time plot in GraphPad Prism 5 (GraphPad Software, San Diego, CA, USA). All assays were performed in triplicate and repeated at least two times.
# SaClpP = target: T1, SaClpP; test: Peptide (Suc-LY-AMC) degradation by SaClpP in destabilizing Tris buffer pH 8; format: biochemical, S. aureus; parameters: Strep-tag (C); made in house; host or cells: E. coli BL21 (DE3); details: Tris buffer pH 8, 32 °C
# Excerpt: In order to assess the different MccJ25 variants, we first chose S. aureus ClpP (SaClpP) as a model peptidase and performed in vitro degradation assays with the fluorogenic model peptide substrate Suc-LY-AMC. […] To investigate whether the MccJ25 variants can exert a stabilizing effect on the oligomeric structure of tetradecameric SaClpP, we conducted peptide degradation assays under destabilizing conditions employing a Tris buffer at pH 8.
# This experimental setup was then used to differentiate the MccJ25 variants regarding their effect on ClpP stability. […] The apparent affinity constant was deduced from enzyme activity assays and represents the effector molecule concentration at half maximal stimulation of enzyme activity (the lower the apparent affinity constant, the higher the affinity). To exclude that 12IGF serves as a SaClpP substrate, we incubated a mixture of SaClpP and 12IGF under assay conditions for up to 260 min.
# as §2
# [2] = target: T2, S. aureus ClpP (Staphylococcus aureus), …; test: SEC; analytical gel filtration, Superdex 200 3.2 Increase; SaClpP in Tris buffer pH 8 (50 mM Tris-HCl, 25 mM MgCl2, 200 mM KCl, 2 mM DTT) with 12IGF; details: remark: other sources report otherwise
# [3] = target: T2, S. aureus ClpP (Staphylococcus aureus), …; test: SEC; analytical gel filtration, Superdex 200 3.2 Increase; SaClpP in Tris buffer pH 8 (50 mM Tris-HCl, 25 mM MgCl2, 200 mM KCl, 2 mM DTT) with ADEP2; details: remark: other sources report otherwise
# [4] = target: T2, S. aureus ClpP (Staphylococcus aureus), …; test: SEC; analytical gel filtration, Superdex 200 3.2 Increase; SaClpP diluted 10x in BsClpP activity buffer (50 mM Tris-HCl, 25 mM MgCl2, 200 mM KCl, 2 mM DTT, pH 8), no effector; details: remark: other sources report otherwise
# [5] = target: T2, S. aureus ClpP (Staphylococcus aureus), …; test: SEC; gel filtration of apo-SaClpP in HEPES buffer, pH 7 (purification: Superdex 200 HiLoad 16/600, 100 mM NaCl, 20 mM HEPES, pH 7; analytical: Superdex 200 3.2 Increase, 100 mM HEPES, 100 mM NaCl, pH 7); details: remark: other sources report otherwise
molecule,measurement,setting,value
B. subtilis ClpP (from UniProt P80244 1-197) (enzyme),stoichiometry N,[1],14
CC[C@H](C)[C@H](NC(=O)[C@@H](NC(=O)[C@H](Cc1ccccc1)NC(=O)[C@H](Cc1ccc(O)cc1)NC(=O)[C@@H]1CCC(=O)NCC(=O)NCC(=O)N[C@@H](C)C(=O)NCC(=O)N[C@@H](Cc2c[nH]cn2)C(=O)N[C@@H](C(C)C)C(=O)N2CCC[C@H]2C(=O)N1)C(C)C)C(=O)NCC(=O)N[C@@H](Cc1ccccc1)C(=O)N[C@H](C(=O)N1CCC[C@H]1C(=O)N[C@H](C(=O)N[C@@H](CO)C(=O)N[C@@H](Cc1ccccc1)C(=O)N[C@@H](Cc1ccc(O)cc1)C(=O)NCC(=O)O)[C@@H](C)CC)[C@@H](C)O [12IGF] (GGAGHVPEYFVIGFTPISFYG-OH; lactam N-8),EC50,"BsClpP (monomer); 5 μM ADEP2, Tris pH 8, 37 °C, ± S.D., two separate experiments, read-out: EC50, BsClpP1 peptidase activity (+ADEP2)",60.2 ± 3.78 µM
same,EC50,"BsClpP (monomer); with ADEP2 (Figure 5C), Tris pH 8, 37 °C, read-out: apparent affinity constant, BsClpP activation in the presence of ADEP2",60 µM
same,EC50,BsClpP tetradecamer,60.3 ± 12.1 µM
same,EC50 relative to ADEP,BsClpP; 12IGF EC50 in SaClpP and BsClpP peptidase assays vs EC50 values measured for ADEP,exceeded the EC50 values measured for ADEP by one to two orders of magnitude
same,EC50,"BsClpP; Figure 5C,D, with or without ADEP2 not specified, 37 °C",60 µM
same,EC50,"SaClpP; 1 μM SaClpP, 200 μM Suc-Leu-Tyr-AMC, 15 min pre-incubation, fluorescence 380/460 nm, ± S.D., three independent experiments, read-out: EC50, stabilizing effect on SaClpP peptidase activity",26 ± 3.32 µM
same,EC50,"SaClpP; effector concentration at half maximal stimulation of enzyme activity, Suc-Leu-Tyr-AMC, read-out: apparent affinity constant, stabilizing effect on SaClpP peptidase activity",~26 µM and 26 µM
"S. aureus ClpP, Q2G036 1-195 (enzyme) MNLIPTVIETTNRGERAYDIYSRLLKDRIIMLGSQIDDNVANSIVSQLLFLQAQDSEKDIYLYINSPGGSVTAGFAIYDTIQHIKPDVQTICIGMAASMGSFLLAAGAKGKRFALPNAEVMIHQPLGGAQGQATEIEIAANHILKTREKLNRILSERTGQSIEKIQKDTDRDNFLTAEEAKEYGLIDEVMVPETK",stoichiometry N,[2],14
same,stoichiometry N,[3],14
same,stoichiometry N,[4],7
same,stoichiometry N,[5],14
